Legend:
[1] = system: HT 29 and other cell lines; assay: Cell tests (XTT cell viability), dark toxicity, in HT 29 and other cell lines; type: cell-based; conditions: 2 or 10 μM photosensitizer, 24 h incubation, XTT assay
Experimental: The photosensitizing activity was determined in the following cell lines: • HT29 (human colon adenocarcinoma cell line) • L929 (mouse fibroblast cell line) • A431 (human epidermoid carcinoma cell line) • A253 (submaxillary salivary gland, epidermoid cell line) • CAL-27 (human tongue squamous cell carcinoma cell line) • J774A.1 (Mouse BALB/c monocyte macrophage).
The cell lines were grown in DMEM (c.c.pro GmbH) supplemented with 10% heat-inactivated fetal calf serum (FCS, c.c.pro GmbH), 1% penicillin (10000 IU) and streptomycin (10000 μg/ml, c.c.pro GmbH). Cells were kept as a monolayer culture in a humidified incubator (5% CO2 in air at 37° C.). A photosensitizer stock solution (2 mM) was performed in DMSO and was kept in the dark at 4° C. Further dilution was performed in DMEM medium without phenol red supplemented with 10% FCS to reach a final photosensitizer concentration of 2 or 10 μM, respectively. After seeding the cells in micro plates, the cells were incubated with fresh medium (DMEM without phenol red) containing 10% FCS with 2 or 10 μM of the photosensitizer for 24 h before light exposure. Before photosensitization, cells were washed, cell culture medium was exchanged with DMEM without phenol red and 10% FCS, then irradiated at room temperature with white light source at a fixed fluence rate of about 100 mW/cm^2 (50 J/cm^2). Following irradiation, cells were incubated in a humidified incubator (5% CO2 in air at 37° C.) for 24 h until cell viability assay. The cell viability was assessed by the XTT assay. 500 mg XTT (sodium 3′-[phenyl-aminocarbonyl)-3,4-tetrazolium]-bis(4-methoxy-6-nitro)benzene sulfonic acid, Applichem GmbH) is dissolved in 500 ml PBS-Buffer (without Ca^2+ and Mg^2) and sterile filtered. Solution was stored in the dark at −20° C. until use. A sterile solution containing PMS (N-methyl dibenzopyrazine methyl sulfate, Applichem GmbH) was needed as an activation reagent for the XTT. 0.383 mg PMS was dissolved in 1 ml PBS-Buffer. […] The absorbance of the samples was measured with a microplate reader (Infinite 200, Tecan Group Ltd.) at a wavelength of 490 nm.

[2] = system: Staphylococcus aureus DSM 1104; assay: Antibacterial testing (CFU/ml count) against S. aureus; type: cell-based; conditions: photosensitizer 100, 10 and 1 μM; for antibacterial activity against S. aureus in the absence of light: absence of light (dark toxicity control), 30 min incubation
Experimental: The organisms studied were Staphylococcus aureus DSM 1104, Gram-positive and Pseudomonas aeruginosa DSM 1117, Gram-negative. Cultures cells are suspended in sterile phosphate-buffered saline (PBS) or sterile PBS supplemented with 10% sterile horse blood serum. The bacterial suspensions are placed into sterile black well plates with clear bottoms. Concentrations of photosensitizer used in the study were as follows: 100 μM, 10 μM and 1 μM. After an incubation time period of 30 minutes, the samples are exposed to white light, with a power density and irradiation time resulting in an energy fluency of about 100 J/cm^2. Control plates contained no photosensitizer and are not exposed to laser light. The control samples for dark toxicity are only exposed to photosensitizer without any illumination. After irradiation, the samples are removed and suspended again in the culture media. The numbers of colony-forming units (CFU/ml) are enumerated after an adequate incubation time period.

| Substance | toxicity to cells in the absence of light (dark toxicity) [1] | antibacterial activity against S. aureus in the absence of light [2] | antibacterial activity in the presence of complex media (serum addition) ([2]; PBS supplemented with 10% sterile horse blood serum) |
| --- | --- | --- | --- |
| Chlorido{5-[4-(N,N-dibutylamino)-3-nitrophenyl]dipyrrinato}(pentamethyl-cyclopentadienyl)iridium(III) [Example 1.6] | non-toxic | – | – |
| {5-[4-(N-2-Hydroxyethylamino)-2,3,5,6-tetrafluorophenyl]dipyrrinato}bis(2-phenyl-pyridyl)iridium(III) [Example 2.1] | – | high antibacterial activity | – |
| {5-[4-(N-Butylamino)-2,3,5,6-tetrafluorophenyl]dipyrrinato}chlorido-(pentamethylcyclopentadienyl)iridium(III) [Example 1.2] | non-toxic | – | – |
| Bis(2-phenylpyridyl){5-[2,3,5,6-tetrafluoro-4-(1′-thio-β-D-glucosyl)phenyl]-dipyrrinato}iridium(III) [Example 3.3] | – | high antibacterial activity | – |
| Bis(2-phenylpyridyl){5-[2,3,5,6-tetrafluoro-4-(1′-thio-β-D-galactosyl)phenyl]-dipyrrinato}iridium(III) [Example 3.4] | – | high antibacterial activity | antibacterial activity is also observed |
| [5-(4-Butyloxy-2,3,5,6-tetrafluorophenyl)dipyrrinato]chlorido-(pentamethylcyclopentadienyl)iridium(III) [Example 1.3] | non-toxic | – | – |

From patent US12187749B2, “Application of dipyrrinato-iridium complexes in anti-tumor and anti-bacterial therapy” (BIOLITEC UNTERGEHMENSBETEILIGUNGS II AG, priority 2020, dated 2025)
